In patent publication US8920334B2, “Method of breath analysis for determining liver capacity or microcirculation using 13C-labeled methacetin substrate” (Freie Universitaet Berlin, priority 2005, dated 2014):

How the values were obtained:
[1] = cited from earlier work
[2] = target: T1, enzyme CYP1A2 in the liver (Homo sapiens, UniProt P05177); test: 13C-methacetin breath test (LiMAx) before and after partial liver resection; format: in vivo; settings: patients, mean
T1 construct: demethylated to paracetamol in a rapid one-step reaction by the enzyme CYP1A2 in the liver; from tissue; host or cells: liver of living patients (in vivo)
T1 sequence (P05177 1-516): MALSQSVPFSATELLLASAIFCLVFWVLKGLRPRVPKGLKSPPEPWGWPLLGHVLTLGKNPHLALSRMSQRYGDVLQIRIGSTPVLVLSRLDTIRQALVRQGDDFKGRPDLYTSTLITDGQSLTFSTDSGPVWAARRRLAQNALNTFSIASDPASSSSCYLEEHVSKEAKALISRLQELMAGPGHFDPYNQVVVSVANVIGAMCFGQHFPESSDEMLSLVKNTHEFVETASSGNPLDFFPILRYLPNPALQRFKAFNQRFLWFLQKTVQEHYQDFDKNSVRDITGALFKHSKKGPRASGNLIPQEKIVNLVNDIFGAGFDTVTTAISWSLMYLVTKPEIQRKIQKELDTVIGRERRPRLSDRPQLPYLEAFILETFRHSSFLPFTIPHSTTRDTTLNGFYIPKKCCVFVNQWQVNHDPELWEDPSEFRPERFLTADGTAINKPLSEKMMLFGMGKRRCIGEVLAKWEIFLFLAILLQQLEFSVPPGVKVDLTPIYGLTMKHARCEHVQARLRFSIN
Protocol: This object is achieved by an analysis method, for determining a functional parameter of an organ of a human or animal individual. According to this analysis method, the ^13CO2 content in the air exhaled by the individual is measured, the ^13CO2 in the body of the individual being formed enzymatically from a substrate that has been administered beforehand to the individual, and then being exhaled by the individual. The measurement of the ^13CO2 content in the air exhaled by the individual is carried out using a suitable measurement device. The maximum reaction rate of the substrate in the body of the individual is determined via a change of the measured ^13CO2 content in the air exhaled by the individual using zero-order enzyme kinetics. The analysis method according to the invention therefore proceeds from a consideration of enzyme kinetics.
In a particularly preferred embodiment of the invention, the maximum reaction rate (LiMAx) is calculated through the converted quantity of substrate per unit of time in μg/h/kg bodyweight at variable times at which the maximum value is reached, such that genuine quantification of the maximum functional liver capacity can be made. The calculation is carried out according to the following formula (1), which describes zero-order enzyme kinetics: […]
Here, δ^13C is the difference between the ^13CO2/^12CO2 ratio of the sample and the Pee Dee Belmite (PDB) standard in delta per mil, RPDB is the ^13CO2/^12CO2 ratio of the PDB standard (0.0112375), P is the CO2 production rate (300 mmol/h×surface area of body in m^2), M is the molecular weight of the substrate, and KG is the actual bodyweight of the individual in kg.
The inundation time is preferably used to assess the microcirculation in the liver, so as to be able to detect microcirculation disturbances. Assuming the quickest possible inundation by in particular intravenous bolus injection and substrate excess and the high first-pass effect of methacetin or another substrate, the hepatic microcirculation can be assessed particularly advantageously. The inundation time needed to reach the maximum reaction rate tvmax is determined, said inundation time lengthening in the presence of microcirculation disturbances, since in this case the substrate inundation is not uniformly or completely delayed in all areas of the liver. Liver perfusion can thus be assessed.
The rapid substrate inundation required for the enzyme-kinetic evaluation is ensured by the fact that ^13C methacetin is administered intravenously in a bolus. The intravenous bolus injection ensures an immediate and complete substrate inundation in the liver. The absorption of the test substance ^13C-methacetin is no longer the step that determines the reaction rate. With the preferred dose of 2 mg methacetin per kg bodyweight, a temporary enzyme utilization is also permitted in patients with a healthy liver by a short-term substrate excess. This permits the actual quantitative expressiveness, since zero-order enzyme kinetics are achieved, and only this permits a statement concerning the maximum functional capacity of an enzyme system.
In the context of a prospective study, a method, which is discussed in more detail below, was used to evaluate liver function before and after partial liver resection in a number of patients: • 1. […]

Row | SMILES | solubility ([1]; in water or in an aqueous buffer) | stability of aqueous solution (crystallization) ([1]; usually aqueous solution) | inundation time (tvmax) until maximum reaction rate ([2]; after partial liver resection) [min] | inundation time (tvmax) until maximum reaction rate ([2]; before partial liver resection) [min] | maximum functional liver capacity (LiMAx) ([2]; post-operative day 1 (POD1) after partial liver resection) [µg/h/kg] | maximum functional liver capacity (LiMAx) ([2]; post-operative day 10 (POD10) after partial liver resection) [µg/h/kg] | maximum functional liver capacity (LiMAx) ([2]; pre-operative (before partial liver resection), intravenous 13C-methacetin solution) [µg/h/kg]
1 | COc1ccc(NC(C)=O)cc1 [methacetin] | extremely sparingly soluble | crystallizes out of a usually aqueous solution within a period of hours to days |  |  |  |  | 
2 | COc1ccc(NC(C)=O)cc1 [^13C-methacetin] |  |  | 53.5 ± 7.51 | 11.9 ± 2.17 | 141 ± 13 | 249 ± 17 | 301 ± 24
